Here are results for 31 compounds from ChEMBL document CHEMBL1128181, “Structure-based design of nonpeptidic HIV protease inhibitors from a cyclooctylpyranone lead structure” (J Med Chem, 1995).

The assay deals with Human immunodeficiency virus type 1 protease (Human immunodeficiency virus 1, UniProt Q72874). As to the kind of experiment: Inhibitory activity against HIV-I protease.

With `CCC(c1ccccc1)c1c(O)c2c(oc1=O)CCCCCCC2` (stereo unspecified), the affinity, expressed as Ki, was 58.3 nM.

With `OC1=C(C(c2ccccc2)C2CC2)COC2=C1CCCCCCC2` (stereo unspecified), the inhibitory constant (Ki) is 11.7 nM.

In turn, `CCCC(=O)Nc1cccc(C(c2c(O)c3c(oc2=O)CCCCCC3)C2CC2)c1` (stereo unspecified) yielded a Ki of 24 nM.

`CCCCC1CCCCCCc2c1oc(O)c(C(c1ccccc1)C1CC1)c2=O` (stereo unspecified) yielded a Ki of 31 nM.

For the compound `O=c1c2c(oc(O)c1C(c1ccccc1)C1CC1)C(CC1CC1)CCCCC2` (stereo unspecified), the affinity, expressed as Ki, was 24 nM.

The compound `CC(C)CC1CCCCCCc2c1oc(O)c(C(c1ccccc1)C1CC1)c2=O` (stereo unspecified) gave a Ki of 30 nM.

With `O=C(Nc1cccc(C(c2c(O)oc3c(c2=O)CCCCCC3)C2CC2)c1)c1ccc(F)cc1` (stereo unspecified), the Ki came out at 55 nM.

`CC(C)(C)OC(=O)NCC(=O)Nc1cccc(C(c2c(O)c3c(oc2=O)CCCCCC3)C2CC2)c1` (stereo unspecified) yielded a Ki of 5.5 nM.

`C[C@H](NC(=O)OC(C)(C)C)C(=O)Nc1cccc(C(c2c(O)c3c(oc2=O)CCCCCC3)C2CC2)c1` (stereo partly specified): the affinity corresponds to a Ki of 6.9 nM.

Consider `O=C(/C=C/c1ccccc1)Nc1cccc(C(c2c(O)oc3c(c2=O)CCCCCC3)C2CC2)c1` (stereo unspecified), for which the Ki came out at 470 nM.

For the compound `CCNC(=O)Nc1cccc(C(c2c(O)c3c(oc2=O)CCCCCC3)C2CC2)c1` (stereo unspecified), the Ki worked out at 72 nM.

As to `O=C(Cc1ccccc1)Nc1cccc(C(c2c(O)oc3c(c2=O)CCCCCC3)C2CC2)c1` (stereo unspecified), the Ki is 33 nM.

Compound `CCC(c1ccccc1)c1c(O)c2c(oc1=O)C(C)CCCCCC2` (stereo unspecified) came in with a Ki of 330 nM.

`O=C(Nc1cccc(C(c2c(O)oc3c(c2=O)CCCCCC3)C2CC2)c1)c1ccccc1` (stereo unspecified) displayed a Ki of 42 nM.

`CC(C)(C)OC(=O)NCCC(=O)Nc1cccc(C(c2c(O)c3c(oc2=O)CCCCCC3)C2CC2)c1` (stereo unspecified) gave a Ki of 4 nM.

`O=c1c2c(oc(O)c1C(c1ccccc1)C1CC1)CCCCCC2` (stereo unspecified) had an inhibitory constant (Ki) of 96 nM.

The compound `O=c1c2c(oc(O)c1C(c1ccccc1)C1CC1)C(CC1CC1)CCCCCC2` (stereo unspecified) came in with a Ki of 24 nM.

With `CC(C)(C)OC(=O)N1CCC[C@H]1C(=O)Nc1cccc(C(c2c(O)c3c(oc2=O)CCCCCC3)C2CC2)c1` (stereo partly specified), the inhibition constant (Ki) stood at 43 nM.

Turning to `CCC1CCCCCCc2c1oc(O)c(C(c1ccccc1)C1CC1)c2=O` (stereo unspecified), the affinity, expressed as Ki, was 33 nM.

`O=c1c2c(oc(O)c1C(c1ccccc1)C1CC1)C(CC1CCCCO1)CCCCCC2` (stereo unspecified) had an inhibition constant Ki of 120 nM.

`CC(C)(C)OC(=O)N[C@@H](Cc1cnc[nH]1)C(=O)Nc1cccc(C(c2c(O)c3c(oc2=O)CCCCCC3)C2CC2)c1` (stereo partly specified) gave an inhibition constant (Ki) of 3 nM.

The compound `COCCC1CCCCCc2c1oc(O)c(C(c1ccccc1)C1CC1)c2=O` (stereo unspecified) had an inhibition constant (Ki) of 28 nM.

Consider `CC(C)(C)OC(=O)N[C@H](Cc1cnc[nH]1)C(=O)Nc1cccc(C(c2c(O)c3c(oc2=O)CCCCCC3)C2CC2)c1` (stereo partly specified), for which the inhibitory constant (Ki) is 11 nM.

With `CCC(c1ccccc1)c1c(O)c2c(oc1=O)C(Cc1ccccc1)CCCCCC2` (stereo unspecified), the inhibition constant Ki amounted to 266 nM.

The compound `C[C@@H](NC(=O)OC(C)(C)C)C(=O)Nc1cccc(C(c2c(O)c3c(oc2=O)CCCCCC3)C2CC2)c1` (stereo partly specified) had an inhibition constant Ki of 32 nM.

Compound `O=c1c2c(oc(O)c1C(C1CC1)C1CC1)CCCCCCC2` came in with a Ki of 57 nM.

`CC(C)(C)OC(=O)NCCCC(=O)Nc1cccc(C(c2c(O)c3c(oc2=O)CCCCCC3)C2CC2)c1` (stereo unspecified): the affinity corresponds to a Ki of 14 nM.

As to `CC(C)CCC1CCCCCCc2c1oc(O)c(C(c1ccccc1)C1CC1)c2=O` (stereo unspecified), the affinity corresponds to a Ki of 50 nM.

For the compound `O=C(Nc1ccccc1)Nc1cccc(C(c2c(O)oc3c(c2=O)CCCCCC3)C2CC2)c1` (stereo unspecified), the inhibitory constant (Ki) was 450 nM.

For the compound `CCCC1CCCCCCc2c1oc(O)c(C(c1ccccc1)C1CC1)c2=O` (stereo in doubt; 11), the affinity corresponds to a Ki of 26 nM.

`CCCC1CCCCCCc2c1oc(O)c(C(c1ccccc1)C1CC1)c2=O` (stereo in doubt; 11e) returned a Ki of 9 nM.
